Experimental data published in US8729076B2, “Secondary 8-hydroxyquinoline-7-carboxamide derivatives” (Polichem SA, priority 2009, dated 2014).
Values after ≈ are worked out from the molar mass of the structure shown. Read-outs that look alike come from different tables or passages of the source.

Assays:
Type in all cases: cell-based
[1] = test system: Scopulariopsis Brevicaulis (ATCC 36840); assay: Broth micro-dilution antifungal susceptibility test (MIC); details: ATCC36840, 120 h, 35° C.
Procedure: (§1) Trichophyton Rubrum (ATCC 28188, PBI International); Trichophyton Mentagrophytes (ATCC 9533, PBI International); Aspergillus Niger (ATCC 16404, PBI International); Scopulariopsis Brevicaulis (ATCC 36840, DSMZ); Candida Albicans (ATCC 90028, PBI International); Candida Glabrata (ATCC 90030, DSMZ).
(§2) Compounds' minimal inhibition concentration (MIC) was determined through broth micro-dilution susceptibility test using a method developed in agreement with the National Committee for Clinical Laboratory Standards (NCCLS) (National Committee for Clinical Laboratory Standards. Reference Method for Broth Dilution Antifungal Susceptibility Testing of Yeasts; Approved standard-Second Edition M27-A2. 2002; Vol. 22, No. 15) (National Committee for Clinical Laboratory Standards. Reference Method for Broth Dilution Antifungal Susceptibility Testing of Filamentous Fungi; Approved standard M38-A. 2002; Vol. 22, No. 16).
(§3) Assays were carried out in RPMI 1640 with L-glutamine medium buffered to pH 7 with 0.165M 3-(N-morpholino)propanesulfonic acid (MOPS) and 10M NaOH and supplemented with 18 g glucose/liter. The tests were performed using 96 well sterile plates (inoculum size of 1×10^5 CFU/mL). Compounds stock solutions were prepared at 12.8 mg/mL in 100% DMSO. A series of twofold dilutions were prepared in plate using RPMI 1640. Final concentrations ranged from 0.125 to 128 μg/mL at 1% DMSO.

[2] = test system: Trichophyton Rubrum (ATCC 28188); assay: as above; details: ATCC28188, 120 h, 35° C.
Procedure: as §1, §2, §3

[3] = test system: Candida Glabrata (ATCC 90030); assay: as above; details: Nakaseomyces glabratus, ATCC90030, 48 h, 35° C.
Procedure: as §1, §2, §3

[4] = test system: Aspergillus Niger (ATCC 16404); assay: as above; details: ATCC16404, 120 h, 35° C.
Procedure: as §1, §2, §3

[5] = test system: Candida Albicans (ATCC 90028); assay: as above; details: 35° C.
Procedure: as §1, §2, §3

[6] = test system: Trichophyton Mentagrophytes (ATCC 9533); assay: as above; details: ATCC9533, 120 h, 35° C.
Procedure: as §1, §2, §3

[7] = test system: Candida Glabrata (ATCC 90030); assay: Assessment of the mechanism of action: antifungal activity with or without 100 μM Fe3+; details: 100 μM FeCl3 in the test medium; OD at 540 nm
Procedure: To verify if the compounds mechanism of action is the chelation of iron ions, the MIC determination with Candida glabrata (ATCC 90030) strain was performed by the addition of excessive iron ions (100 μM FeCl3) in the test medium. The viability of cells exposed to drugs, with or without the metal ion Fe^3+, was evaluated by the OD measure at 540 nm.
Compounds described in Example 2, E8 and NiK-29298 were evaluated in presence and in absence of 100 μM (100 micromoles) Fe^3+.
In all figures, the lines and dots represent the percent inhibition of the fungal growth (in ordinate) by adding different concentrations of antifungal agents (in abscissa). Blue lines and dots are the experiments performed without iron supplementation, while red lines and dots represent the results of the experiments performed in presence of 100 μM Fe^3+. […] Conversely, Fe^3+ has no effect on amphotericin, an antifungal agent known in the art to have a mechanism of action different from that of ciclopirox.

[8] = test system: 6 strains tested, including yeasts, dermatophytes and molds; assay: Antifungal spectrum over the 6 strains tested (MIC test); details: 6 strains: yeasts
Procedure: as §1, §2, §3

[9] = geometric means of two single experiments, five days, Table 3
[10] = geometric means of two single experiments, five days, Table 3, read-out: MIC Trycophyton Rubrum ATCC 28188
[11] = geometric means of two single experiments, Table 3
[12] = ATCC90028, geometric means of two single experiments, 48 h, Table 3
[13] = geometric means of two single experiments, five days, Table 3, read-out: MIC Tricophyton Mentagrophytes ATCC 9533
[14] = comparison compounds, Table 5, five days
[15] = comparison compounds, Table 5, five days, read-out: MIC Trycophyton Rubrum ATCC 28188
[16] = ATCC90028, comparison compounds, Table 5, 48 h
[17] = comparison compounds, Table 5, five days, read-out: MIC Tricophyton Mentagrophytes ATCC 9533

| Compound | MIC [1, 9] [µg/mL] | MIC [2, 10] [µg/mL] | MIC [3, 11] [µg/mL] | MIC [4, 9] [µg/mL] | MIC [5, 12] [µg/mL] | MIC [6, 13] [µg/mL] | MIC [1, 14] [µg/mL] | MIC [2, 15] [µg/mL] | MIC ([3]; comparison compounds, Table 5) [µg/mL] | MIC [4, 14] [µg/mL] | MIC [5, 16] [µg/mL] | MIC [6, 17] [µg/mL] | Effect of Fe3+ on antifungal activity [7] | Spectrum of antifungal activity on the strains tested [8] |
| --- | --- | --- | --- | --- | --- | --- | --- | --- | --- | --- | --- | --- | --- | --- |
| O=C(NCc1ccccn1)c1ccc2cccnc2c1O [Example 1, 8-Hydroxy-N-(pyridin-2-ylmethyl)quinoline-7-carboxamide] | 1 (≈ 3.58 µM) | 2 (≈ 7.16 µM) | 4 (≈ 14.3 µM) | 0.5 (≈ 1.79 µM) | 4 (≈ 14.3 µM) | 2 (≈ 7.16 µM) |  |  |  |  |  |  |  |  |
| O=C(NCc1ccc(Br)cc1)c1ccc2cccnc2c1O [Example 2, 8-Hydroxy-N-(4-bromobenzyl)quinoline-7-carboxamide] | 1.41 (≈ 3.95 µM) | 1.41 (≈ 3.95 µM) | 1.41 (≈ 3.95 µM) | 0.71 (≈ 1.99 µM) | 1.41 (≈ 3.95 µM) | 1 (≈ 2.8 µM) |  |  |  |  |  |  |  |  |
| CN(C)c1ccc(CNC(=O)c2ccc3cccnc3c2O)cc1 [Example 4, 8-Hydroxy-N-(4-(dimethylamino)benzyl)quinoline-7-carboxamide] | 1 (≈ 3.11 µM) | 1 (≈ 3.11 µM) | 1.41 (≈ 4.39 µM) | 0.5 (≈ 1.56 µM) | 2.83 (≈ 8.81 µM) | 0.71 (≈ 2.21 µM) |  |  |  |  |  |  |  |  |
| O=C(Nc1ccc(-n2cncn2)cc1)c1ccc2cccnc2c1O [Example 7, 8-Hydroxy-N-(4-(1H-1,2,4-triazol-1-yl)phenyl)quinoline-7-carboxamide] | 1.26 (≈ 3.8 µM) | 2.52 (≈ 7.61 µM) | 2.83 (≈ 8.54 µM) | 1 (≈ 3.02 µM) | 2 (≈ 6.04 µM) | 2 (≈ 6.04 µM) |  |  |  |  |  |  |  |  |
| O=C(Nc1ccc2c(c1)OCCO2)c1ccc2cccnc2c1O [Example 9, 8-Hydroxy-N-(2,3-dihydrobenzo[b][1,4]dioxin-6-yl)quinoline-7-carboxamide] | 1 (≈ 3.1 µM) | 0.25 (≈ 0.776 µM) | 2 (≈ 6.21 µM) | 1 (≈ 3.1 µM) | 2 (≈ 6.21 µM) | 0.5 (≈ 1.55 µM) |  |  |  |  |  |  |  |  |
| O=C(NCc1ccc(N2CCOCC2)cc1)c1ccc2cccnc2c1O [Example 10, 8-Hydroxy-N-(4-morpholinobenzyl)quinoline-7-carboxamide] | 4 (≈ 11 µM) | 1 (≈ 2.75 µM) | 2 (≈ 5.5 µM) | 0.5 (≈ 1.38 µM) | 4 (≈ 11 µM) | 0.5 (≈ 1.38 µM) |  |  |  |  |  |  |  |  |
| Cc1cc(CNC(=O)c2ccc3cccnc3c2O)no1 [Example 11, 8-Hydroxy-N-((5-methylisoxazol-3-yl)methyl)quinoline-7-carboxamide] | 2.83 (≈ 9.99 µM) | 1 (≈ 3.53 µM) | 2 (≈ 7.06 µM) | 1 (≈ 3.53 µM) | 2 (≈ 7.06 µM) | 4 (≈ 14.1 µM) |  |  |  |  |  |  |  |  |
| Cc1csc(CNC(=O)c2ccc3cccnc3c2O)n1 [Example 12, 8-Hydroxy-N-((4-methylthiazol-2-yl)methyl)quinoline-7-carboxamide] | 1 (≈ 3.34 µM) | 1.41 (≈ 4.71 µM) | 2 (≈ 6.68 µM) | 1 (≈ 3.34 µM) | 2 (≈ 6.68 µM) | 2.83 (≈ 9.45 µM) |  |  |  |  |  |  |  |  |
| O=C(NCc1nc2ccccc2s1)c1ccc2cccnc2c1O [Example 14, 8-Hydroxy-N-(benzo[d]thiazol-2-ylmethyl)quinoline-7-carboxamide] | 1 (≈ 2.98 µM) | 2 (≈ 5.96 µM) | 2.83 (≈ 8.44 µM) | 0.5 (≈ 1.49 µM) | 2 (≈ 5.96 µM) | 1 (≈ 2.98 µM) |  |  |  |  |  |  |  |  |
| O=C(NCc1ccc(OCc2ccccc2)cc1)c1ccc2ncccc2c1 [Example E8, reference compound] |  |  |  |  |  |  | > 128 | > 128 | 1 (≈ 2.71 µM) | 2 to 128 (≈ 5.43 to 347 µM) | 1.41 (≈ 3.83 µM) | 75 (≈ 204 µM) | not inhibited | active only on yeasts |
| O=C(NCc1ccccc1)c1ccc2ncccc2c1 [NiK-29298, reference compound] |  |  |  |  |  |  | > 128 | > 128 | 5.65 (≈ 21.5 µM) | 64 to 128 (≈ 244 to 488 µM) | 2 (≈ 7.62 µM) | 128 (≈ 488 µM) | not inhibited | active only on yeasts |
| C[C@@H]1[C@H](O)[C@@H](C)/C=C/C=C/C=C/C=C/C=C/C=C/C=C/[C@H](O[C@@H]2O[C@H](C)[C@@H](O)[C@H](N)[C@@H]2O)C[C@@H]2O[C@](O)(C[C@@H](O)C[C@@H](O)[C@H](O)CC[C@@H](O)C[C@@H](O)CC(=O)O[C@H]1C)C[C@H](O)[C@H]2C(=O)O [amphotericin] |  |  |  |  |  |  |  |  |  |  |  |  | no effect |  |
| Cc1cc(C2CCCCC2)n(O)c(=O)c1 [ciclopirox] |  |  |  |  |  |  |  |  |  |  |  |  | completely inhibited |  |
